Laboratory results reported in patent US10851067B2, “Kv7 channel activators compositions and methods of use” (Knopp Biosciences LLC, priority 2018, dated 2020).

These compounds were tested against Kv7.2/7.3 (Homo sapiens, UniProt O43525+O43526) (assay: Kv7.2/7.3 Activation Assay, QPatch single concentration screen). Settings: Kv7.2/Kv7.3 co-expressing HEK cells, compound concentration 3 μM, steady-state current at end of 2 s pulse to −30 mV.
Assay type: cell-based
Design: host or cells: HEK cells, tetracycline-inducible expression; key: 1.2-2.9 (+); 3-3.9 (++); >4 (+++) fold increase over baseline; O represents open channel at holding potential
Outline: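 Tetracycline-induced HEK cells expressing human Kv7.2/7.3, recorded 24 h post-induction by automated planar patch clamp. From −80 mV, 2 s steps to −30 mV then 100 ms to −120 mV; compound tested at 3 μM (0.1% DMSO). Steady-state current at end of −30 mV step gives fold increase over baseline.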

| Structure (SMILES) | Kv7.2/7.3 Activity: increase over baseline in current |
| --- | --- |
| CC1(n2c(NC(=O)CC(C)(C)C(F)(F)F)nc3ccc(C#N)cc32)CCC1 [Example 361, N-(6-cyano-1-(1-methylcyclobutyl)-1H-benzo[d]imidazol-2-yl)-4,4,4-trifluoro-3,3-dimethylbutanamide] | ++ (3-3.9 (++)) |
| CC1(Cn2c(NC(=O)CC(C)(O)c3ccccc3)nc3ccc(C#N)cc32)CC1 (single isomer, unassigned) [Example 471, N-(6-cyano-1-((1-methylcyclopropyl)methyl)-1H-benzo[d]imidazol-2-yl)-3-hydroxy-3-phenylbutanamide] | + (1.2-2.9 (+)) |
| CC(O)(CC(=O)Nc1nc2ccc(OC(F)F)cc2n1C1(C)CCC1)c1ccccc1 (single isomer, unassigned) [Example 463, N-(6-(difluoromethoxy)-1-(1 - methylcyclobutyl)-1H-benzo[d]imidazol-2-yl)-3-hydroxy-3-phenylbutanamide] | + (1.2-2.9 (+)) |
| CC1(n2c(NC(=O)CC(C)(C)C(F)(F)F)nc3c(F)cc(OC(F)F)cc32)CCC1 [Example 461, N-(6-(difluoromethoxy)-4-fluoro-1-(1-methylcyclobutyl)-1H-benzo[d]imidazol-2-yl)-4,4,4-trifluoro-3,3-dimethylbutanamide] | + (1.2-2.9 (+)) |
| CC(C)(C)CC(=O)Nc1nc2cc(F)cc(C#N)c2n1C1(C)CCC1 [Example 436, N-(7-cyano-5-fluoro-1-(1-methylcyclobutyl)-1H-benzo[d]imidazol-2-yl)-3,3-dimethylbutanamide] | ++ (3-3.9 (++)) |
| CC(O)(CC(=O)Nc1nc2ccc(C#N)cc2n1C1(C)CCC1)c1ccc(F)cc1F (single isomer, unassigned) [Example 460, N-(6-cyano-1-(1-methylcyclobutyl)-1H-benzo[d]imidazol-2-yl)-3-(2,4-difluorophenyl)-3-hydroxybutanamide] | ++ (3-3.9 (++)) |
| C[C@H](C(=O)Nc1nc2c(F)cc(C(C)(C)O)cc2n1C1CCC1)C(C)(C)C [Example 443, (S)-N-(1-cyclobutyl-4-fluoro-6-(2-hydroxypropan-2-yl)-1H-benzo[d]imidazol-2-yl)-2,3,3-trimethylbutanamide] | ++ (3-3.9 (++)) |
| CC(O)(CC(=O)Nc1nc2cc(F)c(C#N)cc2n1C1(C)CCC1)c1ccccc1F (single isomer, unassigned) [Example 478, N-(6-cyano-5-fluoro-1-(1-methylcyclobutyl)-1H-benzo[d]imidazol-2-yl)-3-(2-fluorophenyl)-3-hydroxybutanamide] | + (1.2-2.9 (+)) |
| [2H]C([2H])([2H])C(CC(=O)Nc1nc2c(F)cc(C(C)(C)O)cc2n1C1CCC1)(C([2H])([2H])[2H])C([2H])([2H])[2H] [Example 342, N-(1-cyclobutyl-4-fluoro-6-(2-hydroxypropan-2-yl)-1H-benzo[d]imidazol-2-yl)-3,3-bis(methyl-d3)butanamide] | +++ (>4 (+++) fold increase over baseline) |
| CC(C)(CC(=O)Nc1nc2ccc(C#N)cc2n1C(C)(C)C(F)(F)F)C1CC1 [Example 333, N-(6-cyano-1-(1,1,1-trifluoro-2-methylpropan-2-yl)-1H-benzo[d]imidazol-2-yl)-3-cyclopropyl-3-methylbutanamide] | ++ (3-3.9 (++)) |
| CC1(n2c(NC(=O)CC(C)(C)C(F)(F)F)nc3c(OC(F)F)cc(C#N)cc32)CCC1 [Example 419, N-(6-cyano-4-(difluoromethoxy)-1-(1-methylcyclobutyl)-1H-benzo[d]imidazol-2-yl)-4,4,4-trifluoro-3,3-dimethylbutanamide] | + (1.2-2.9 (+)) |
| CN(C)c1ccc2nc(NC(=O)CC(C)(C)C)n(C3CCC3)c2c1F [Example 454, N-(1-cyclobutyl-6-(dimethylamino)-7-fluoro-1H-benzo[d]imidazol-2-yl)-3,3-dimethylbutanamide] | +++ (>4 (+++) fold increase over baseline) |
| CC(C)(C)CC(=O)Nc1nc2ccc(C(C)(C)O)cc2n1CC(F)(F)F [Example 440, N-(6-(2-hydroxypropan-2-yl)-1-(2,2,2-trifluoroethyl)-1H-benzo[d]imidazol-2-yl)-3,3-dimethylbutanamide] | + (1.2-2.9 (+)) |
| CC(C)(C)CC(=O)Nc1nc2c(F)cc(C(C)(O)C3CC3)cc2n1C1CCC1 (stereo not shown) [Example 445, N-(1-cyclobutyl-6-(1-cyclopropyl-1-hydroxyethyl)-4-fluoro-1H-benzo[d]imidazol-2-yl)-3,3-dimethylbutanamide] | ++ (3-3.9 (++)) |
| CC(C)(C)CC(=O)Nc1nc2c(Cl)cc(C#N)cc2n1C1CCC1 [Example 377, N-(4-chloro-6-cyano-1-cyclobutyl-1H-benzo[d]imidazol-2-yl)-3,3-dimethylbutanamide] | +++ (>4 (+++) fold increase over baseline) |
| CC(C)(CC(=O)Nc1nc2c(F)cc(O)cc2n1C1CCC1)C(F)(F)F [Example 359, N-(1-cyclobutyl-4-fluoro-6-hydroxy-1H-benzo[d]imidazol-2-yl)-4,4,4-trifluoro-3,3-dimethylbutanamide] | ++ (3-3.9 (++)) |
| C[C@@H](CC(=O)Nc1nc2c(F)cc(C(C)(C)O)cc2n1C1CCC1)c1ccccc1 [Example 410, (S)-N-(1-cyclobutyl-4-fluoro-6-(2-hydroxypropan-2-yl)-1H-benzo[d]imidazol-2-yl)-3-phenylbutanamide] | O |
| CC(C)(CC(=O)Nc1nc2ccc(OC(F)F)cc2n1C1(C)CCC1)C1CC1 [Example 434, 3-cyclopropyl-N-(6-(difluoromethoxy)-1-(1-methylcyclobutyl)-1H-benzo[d]imidazol-2-yl)-3-methylbutanamide] | +++ (>4 (+++) fold increase over baseline) |
| CC(C)(C)CC(=O)Nc1nc2ccc(OC(F)F)cc2n1C1(C)CCC1 [Example 346, N-(6-(difluoromethoxy)-1-(1-methylcyclobutyl)-1H-benzo[d]imidazol-2-yl)-3,3-dimethylbutanamide] | ++ (3-3.9 (++)) |
| CC(C)(C)CC(=O)Nc1nc2cc(F)c(C#N)cc2n1C1(C)CCC1 [Example 437, N-(6-cyano-5-fluoro-1-(1-methylcyclobutyl)-1H-benzo[d]imidazol-2-yl)-3,3-dimethylbutanamide] | ++ (3-3.9 (++)) |
| CC(C)(C)Cn1c(NC(=O)CC(C)(O)c2ccccc2)nc2ccc(C#N)cc21 (single isomer, unassigned) [Example 341, N-(6-cyano-1-neopentyl-1H-benzo[d]imidazol-2-yl)-3-hydroxy-3-phenylbutanamide] | + (1.2-2.9 (+)) |
| COc1cc(F)c2nc(NC(=O)CC(C)(C)C)n(C3CCC3)c2c1 [Example 469, N-(1-cyclobutyl-4-fluoro-6-methoxy-1H-benzo[d]imidazol-2-yl)-3,3-dimethylbutanamide] | +++ (>4 (+++) fold increase over baseline) |
